In patent publication US20170319519A1, “COMBINATION FOR THE TREATMENT OF CONDITIONS INVOLVING MUSCULAR PAIN” (Spherium Biomed S.L., priority 2014, published 2017):

Tested on: patients with temporomandibular pain
Assay: Global pain reduction in TMJ patients, visual analogic scale (VAS)
Assay type: in vivo
Details: n=3 per group, treated 3 times over 24 h, VAS 8 hours after the last administration
Description: In order to test the role of vitamin C in the formulation 7 groups of patients (n=3) with temporomandibular pain were administered the following combinations:
Patients were treated 3 times over 24 h, and were asked to evaluate their pain (localized and general) 8 hours after the last administration using a visual analogic scale (VAS) from 1 to 10, being 10 the most positive situation. The results of the two assessments were summed up to obtain the global pain score.

O=C1O[C@H]([C@@H](O)CO)C(O)=C1O [Group 7, Vitamin C]
effect on reduction of (global) pain, conclusions in words: worst values in all parameters | effect on reduction of (global) pain, conclusions in words (listed as Vit C): no effect
